Tests used:
E. coli JC3 = test: Antibacterial activity, MIC by agar plate dilution assay; format: cell-based; design: unit not given here
Method: (§1) Antibacterial activities of the compounds of the present invention were measured as the minimum inhibitory concentration (MIC) by the agar plate dilution assay method according to the standard method of Japan Society of Chemotherapy. Ofloxacin (OFLX) was used as the control compound.

E. faecalis 1373 = test: as above; format: cell-based; design: unit not given here
Method: as §1

S. aureus JS1 (MRSA) = test: as above; format: cell-based; design: unit not given here
Method: as §1

S. aureus KP90-3 (MRSA) = test: as above; format: cell-based; design: unit not given here
Method: as §1

S. aureus Smith = test: as above; format: cell-based; design: unit not given here
Method: as §1

S. pyogenes Cook = test: as above; format: cell-based; design: unit not given here
Method: as §1

[1] = Acute toxicity test, oral, ICR mice; settings: mouse, in vivo, 6-week-old ICR mice, orally, suspended in 0.5% methylcellulose
Method: Acute toxicity test was performed using 6-week-old ICR mice. The compound of Example 21a was used as the tested compound. The compound was suspended in a 0.5% solution of methylcellulose, and the suspension was orally administered. The value of LD50 was at least 4000 mg/kg.

[2] = tested on: peripheral blood erythrocytes; test: Mutagenicity, micronucleus assay in mice; format: in vivo; settings: 8-week-old ICR mice; abdominally administered in olive oil; dose 200 mg/kg; before and 24, 48 and 72 hours after
Method: Micronucleus assay was performed using 8-week-old ICR mice to confirm whether the compounds have mutagenicity. The compound of Example 21a was suspended in olive oil, and the suspension was abdominally administered to mice. The peripheral blood was obtained before and 24, 48 and 72 hours after the administration, and smeared specimens of the peripheral blood were prepared by acridine orange dying. In each specimen, 1000 erythrocytes were observed and frequency of occurrence of micronucleus was recorded. The frequency was not changed even in dose 200 mg/kg.

N[C@@H]1CN(c2nc3c(cc2F)c(=O)c(C(=O)O)cn3-c2ccc(F)cc2F)C[C@H]1C(F)(F)F (relative stereo) [Example 35a]
Minimum Inhibitory Concentration (MIC) (E. coli JC3): 0.78 | Minimum Inhibitory Concentration (MIC) (E. faecalis 1373): 0.78 | Minimum Inhibitory Concentration (MIC) (S. aureus JS1 (MRSA)): 0.1 | Minimum Inhibitory Concentration (MIC) (S. aureus KP90-3 (MRSA)): 25 | Minimum Inhibitory Concentration (MIC) (S. aureus Smith): 0.05 | Minimum Inhibitory Concentration (MIC) (S. pyogenes Cook): 0.39

O=C(O)c1cn(C2CC2)c2c(F)c(N3C[C@@H](CO)[C@H](C(F)(F)F)C3)c(F)cc2c1=O (relative stereo) [Example 6a, 1-Cyclopropyl-6,8-difluoro-1,4-dihydro-7-(trans-3-hydroxymethyl-4-trifluoromethyl-1-pyrrolidinyl)-4-oxoquinoline-3-carboxylic acid]
Minimum Inhibitory Concentration (MIC) (E. coli JC3): 0.39 | Minimum Inhibitory Concentration (MIC) (E. faecalis 1373): 0.39 | Minimum Inhibitory Concentration (MIC) (S. aureus JS1 (MRSA)): 0.05 | Minimum Inhibitory Concentration (MIC) (S. aureus KP90-3 (MRSA)): 3.13 | Minimum Inhibitory Concentration (MIC) (S. aureus Smith): 0.025 | Minimum Inhibitory Concentration (MIC) (S. pyogenes Cook): 0.39

COc1c(N2C[C@@H](CN)[C@H](C(F)(F)F)C2)c(F)cc2c(=O)c(C(=O)O)cn(C3CC3)c12 (relative stereo) [Example 21a]
Minimum Inhibitory Concentration (MIC) (E. coli JC3): 0.1 | Minimum Inhibitory Concentration (MIC) (E. faecalis 1373): 0.1 | Minimum Inhibitory Concentration (MIC) (S. aureus JS1 (MRSA)): 0.013 | Minimum Inhibitory Concentration (MIC) (S. aureus KP90-3 (MRSA)): 0.78 | Minimum Inhibitory Concentration (MIC) (S. aureus Smith): 0.013 | Minimum Inhibitory Concentration (MIC) (S. pyogenes Cook): 0.025 | LD50 [1]: ≥ 4000 mg/kg | frequency of occurrence of micronucleus [2]: not changed

O=C(O)c1cn(C2CC2)c2c(Cl)c(N3C[C@@H](CO)[C@H](C(F)(F)F)C3)c(F)cc2c1=O (relative stereo) [Example 7a]
Minimum Inhibitory Concentration (MIC) (E. coli JC3): 0.39 | Minimum Inhibitory Concentration (MIC) (E. faecalis 1373): 0.2 | Minimum Inhibitory Concentration (MIC) (S. aureus JS1 (MRSA)): 0.013 | Minimum Inhibitory Concentration (MIC) (S. aureus KP90-3 (MRSA)): 0.39 | Minimum Inhibitory Concentration (MIC) (S. aureus Smith): ≤ 0.006 | Minimum Inhibitory Concentration (MIC) (S. pyogenes Cook): 0.1

N[C@@H]1CN(c2c(F)cc3c(=O)c(C(=O)O)cn(C4CC4)c3c2F)C[C@H]1C(F)(F)F (relative stereo) [Example 23a]
Minimum Inhibitory Concentration (MIC) (E. coli JC3): 0.2 | Minimum Inhibitory Concentration (MIC) (E. faecalis 1373): 0.78 | Minimum Inhibitory Concentration (MIC) (S. aureus JS1 (MRSA)): 0.2 | Minimum Inhibitory Concentration (MIC) (S. aureus KP90-3 (MRSA)): 12.5 | Minimum Inhibitory Concentration (MIC) (S. aureus Smith): 0.1 | Minimum Inhibitory Concentration (MIC) (S. pyogenes Cook): 0.78

NC[C@@H]1CN(c2c(F)cc3c(=O)c(C(=O)O)cn(C4CC4)c3c2Cl)C[C@H]1C(F)(F)F (relative stereo) [Example 15a]
Minimum Inhibitory Concentration (MIC) (E. coli JC3): 0.05 | Minimum Inhibitory Concentration (MIC) (E. faecalis 1373): 0.1 | Minimum Inhibitory Concentration (MIC) (S. aureus JS1 (MRSA)): 0.013 | Minimum Inhibitory Concentration (MIC) (S. aureus KP90-3 (MRSA)): 0.39 | Minimum Inhibitory Concentration (MIC) (S. aureus Smith): ≤ 0.006 | Minimum Inhibitory Concentration (MIC) (S. pyogenes Cook): 0.013

Nc1c(F)c(N2C[C@@H](N)[C@H](C(F)(F)F)C2)c(F)c2c1c(=O)c(C(=O)O)cn2C1CC1 (relative stereo) [Example 29a]
Minimum Inhibitory Concentration (MIC) (E. coli JC3): 0.05 | Minimum Inhibitory Concentration (MIC) (E. faecalis 1373): 0.39 | Minimum Inhibitory Concentration (MIC) (S. aureus JS1 (MRSA)): 0.05 | Minimum Inhibitory Concentration (MIC) (S. aureus KP90-3 (MRSA)): 25 | Minimum Inhibitory Concentration (MIC) (S. aureus Smith): 0.025 | Minimum Inhibitory Concentration (MIC) (S. pyogenes Cook): 0.2

CC1COc2c(N3CCN(C)CC3)c(F)cc3c(=O)c(C(=O)O)cn1c23 (centres unmarked) [OFLX, Ofloxacin, reference compound]
Minimum Inhibitory Concentration (MIC) (E. coli JC3): 0.1 | Minimum Inhibitory Concentration (MIC) (E. faecalis 1373): 1.56 | Minimum Inhibitory Concentration (MIC) (S. aureus JS1 (MRSA)): 0.39 | Minimum Inhibitory Concentration (MIC) (S. aureus KP90-3 (MRSA)): 25 | Minimum Inhibitory Concentration (MIC) (S. aureus Smith): 0.2 | Minimum Inhibitory Concentration (MIC) (S. pyogenes Cook): 0.78

Nc1c(F)c(N2C[C@@H](CO)[C@H](C(F)(F)F)C2)c(F)c2c1c(=O)c(C(=O)O)cn2C1CC1 (relative stereo) [Example 8a]
Minimum Inhibitory Concentration (MIC) (E. coli JC3): 0.2 | Minimum Inhibitory Concentration (MIC) (E. faecalis 1373): 0.2 | Minimum Inhibitory Concentration (MIC) (S. aureus JS1 (MRSA)): 0.013 | Minimum Inhibitory Concentration (MIC) (S. aureus KP90-3 (MRSA)): 3.13 | Minimum Inhibitory Concentration (MIC) (S. aureus Smith): ≤ 0.006 | Minimum Inhibitory Concentration (MIC) (S. pyogenes Cook): 0.39

NC[C@@H]1CN(c2c(F)c(N)c3c(=O)c(C(=O)O)cn(C4CC4)c3c2F)C[C@H]1C(F)(F)F (relative stereo) [Example 18a]
Minimum Inhibitory Concentration (MIC) (E. coli JC3): 0.025 | Minimum Inhibitory Concentration (MIC) (E. faecalis 1373): 0.05 | Minimum Inhibitory Concentration (MIC) (S. aureus JS1 (MRSA)): ≤ 0.006 | Minimum Inhibitory Concentration (MIC) (S. aureus KP90-3 (MRSA)): 1.56 | Minimum Inhibitory Concentration (MIC) (S. aureus Smith): ≤ 0.006 | Minimum Inhibitory Concentration (MIC) (S. pyogenes Cook): 0.013

Cl.NC[C@@H]1CN(c2c(F)cc3c(=O)c(C(=O)O)cn(C4CC4)c3c2F)C[C@H]1C(F)(F)F (relative stereo) [Example 12a, 7-(Trans-3-aminomethyl-4-trifluoromethyl-1-pyrrolidinyl)-1-cyclopropyl-6,8-difluoro-1,4-dihydro-4-oxoquinoline-3-carboxylic acid hydrochloride]
Minimum Inhibitory Concentration (MIC) (E. coli JC3): 0.05 | Minimum Inhibitory Concentration (MIC) (E. faecalis 1373): 0.1 | Minimum Inhibitory Concentration (MIC) (S. aureus JS1 (MRSA)): 0.025 | Minimum Inhibitory Concentration (MIC) (S. aureus KP90-3 (MRSA)): 0.78 | Minimum Inhibitory Concentration (MIC) (S. aureus Smith): 0.013 | Minimum Inhibitory Concentration (MIC) (S. pyogenes Cook): 0.025

COc1c(N2C[C@@H](CO)[C@H](C(F)(F)F)C2)c(F)cc2c(=O)c(C(=O)O)cn(C3CC3)c12 (relative stereo) [Example 9a, 1-Cyclopropyl-6-fluoro-1,4-dihydro-7-(trans-3-hydroxymethyl-4-trifluoromethyl-1-pyrrolidinyl)-8-methoxy-4-oxoquinoline-3-carboxylic acid]
Minimum Inhibitory Concentration (MIC) (E. coli JC3): 0.39 | Minimum Inhibitory Concentration (MIC) (E. faecalis 1373): 0.2 | Minimum Inhibitory Concentration (MIC) (S. aureus JS1 (MRSA)): 0.013 | Minimum Inhibitory Concentration (MIC) (S. aureus KP90-3 (MRSA)): 0.78 | Minimum Inhibitory Concentration (MIC) (S. aureus Smith): ≤ 0.006 | Minimum Inhibitory Concentration (MIC) (S. pyogenes Cook): 0.2

COc1c(N2C[C@@H](N)[C@H](C(F)(F)F)C2)c(F)cc2c(=O)c(C(=O)O)cn(C3CC3)c12 (relative stereo) [Example 31a]
Minimum Inhibitory Concentration (MIC) (E. coli JC3): 0.39 | Minimum Inhibitory Concentration (MIC) (E. faecalis 1373): 0.39 | Minimum Inhibitory Concentration (MIC) (S. aureus JS1 (MRSA)): 0.05 | Minimum Inhibitory Concentration (MIC) (S. aureus KP90-3 (MRSA)): 3.13 | Minimum Inhibitory Concentration (MIC) (S. aureus Smith): 0.05 | Minimum Inhibitory Concentration (MIC) (S. pyogenes Cook): 0.39

N[C@@H]1CN(c2c(F)cc3c(=O)c(C(=O)O)cn(C4CC4)c3c2Cl)C[C@H]1C(F)(F)F (relative stereo) [Example 26a]
Minimum Inhibitory Concentration (MIC) (E. coli JC3): 0.2 | Minimum Inhibitory Concentration (MIC) (E. faecalis 1373): 0.39 | Minimum Inhibitory Concentration (MIC) (S. aureus JS1 (MRSA)): 0.05 | Minimum Inhibitory Concentration (MIC) (S. aureus KP90-3 (MRSA)): 3.13 | Minimum Inhibitory Concentration (MIC) (S. aureus Smith): 0.05 | Minimum Inhibitory Concentration (MIC) (S. pyogenes Cook): 0.39
